The results in this text go back to ChEMBL document CHEMBL1201862, “PubChem BioAssay data set” (2004).

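Cells were grown in 96-well plates and exposed to each compound for 48 hours at five concentrations; endpoints were interpolated linearly between bracketing concentrations, or set to the highest concentration if not reached. Here, GI50 denotes the concentration required for 50% inhibition of growth.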 Calls of active or inactive are those of the source. No stated cut-off is given here; in the data, active = GI50 up to about 1.1 µM and inactive = higher.

For orientation: GI50 means the concentration giving 50% growth inhibition.

Test systems include ACHN; CAKI-1; COLO 205; HCC 2998; HT-29; IGROV-1; KM12; MOLT-4; NCI-H226; NCI-H23; OVCAR-3; SK-MEL-28; SK-OV-3; U-251; UACC-257; UACC-62; HCT-15.
Holding throughout (test): DTP human tumour cell line panel, 48 h

On to `COC(=O)CCC(=O)CC1CC(=O)C2CCCN12` (stereo not drawn), for which the GI50 with ACHN, with CAKI-1, in the assay on COLO 205, with HCC 2998, in the assay with HT-29 and in the assay with IGROV-1 was > 100 µM (inactive) throughout. Further, the GI50 in the assay on KM12, in the assay with MOLT-4, in the assay on NCI-H226, in the assay on NCI-H23, in the assay with OVCAR-3 and in the assay with SK-MEL-28 was > 100 µM (inactive) each time. The GI50 in the assay on SK-OV-3, with U-251, in the assay with UACC-257 and with UACC-62 was > 100 µM (inactive) each time.
For the molecule `CC1(C)CC(=O)C(CC2C(=O)CCCC2=O)C(=O)C1`, the GI50 is > 100 µM (inactive) in the assay with ACHN; > 100 µM (inactive) in the assay on CAKI-1; > 100 µM (inactive) with COLO 205; > 100 µM (inactive) in the assay with HCC 2998; greater than 100 µM with HCT-15; > 100 µM (inactive) with HT-29. For the same molecule, the GI50 in the assay on IGROV-1, in the assay with KM12, with MOLT-4, with NCI-H226, in the assay on NCI-H23 and with OVCAR-3 was > 100 µM (inactive) each time. The GI50 in the assay on SK-MEL-28, in the assay on SK-OV-3, in the assay on U-251, with UACC-257 and with UACC-62 was > 100 µM (inactive) each time.
In the case of `Cc1ccccc1C(=O)Oc1ccc(Oc2ccccc2)cc1`, the GI50 in the assay on ACHN is 28.4 µM (inactive); in the assay with CAKI-1, 72.9 µM (inactive); in the assay with COLO 205 it was > 100 µM (inactive); in the assay with HCC 2998 it was 86.1 µM (inactive); in the assay with HCT-15, greater than 100 µM; in the assay on HT-29 it was > 100 µM (inactive). The GI50 is > 100 µM (inactive) in the assay on IGROV-1; > 100 µM (inactive) in the assay with KM12; 67 µM (inactive) in the assay with MOLT-4; > 100 µM (inactive) in the assay with NCI-H226; > 100 µM (inactive) with NCI-H23; > 100 µM (inactive) in the assay on OVCAR-3. Moreover, the GI50 in the assay with SK-OV-3, in the assay on U-251, in the assay on UACC-257 and in the assay on UACC-62 was > 100 µM (inactive) in each case.
In the case of `CN(C)CC1CCCCCCCCCCCCC(CN(C)C)C1=O` (stereo not drawn), the GI50 was 16.2 µM (inactive) with ACHN; 13.3 µM (inactive) in the assay with CAKI-1; 14 µM (inactive) in the assay with COLO 205; 10.2 µM (inactive) in the assay on HCC 2998; 18.7 µM in the assay with HCT-15; 5.66 µM (inactive) with HT-29. Also, the GI50 in the assay with IGROV-1 is 17.3 µM (inactive); in the assay on KM12, 11.1 µM (inactive); in the assay with MOLT-4, 2.09 µM (inactive); in the assay with NCI-H226, 11 µM (inactive); in the assay with NCI-H23, 17.7 µM (inactive); in the assay with OVCAR-3, 16.8 µM (inactive). For the same molecule, the GI50 in the assay on SK-MEL-28 was 13.6 µM (inactive); in the assay with SK-OV-3, 17.7 µM (inactive); in the assay with U-251 it was 14.3 µM (inactive); in the assay on UACC-257, 16.3 µM (inactive); with UACC-62, 13.3 µM (inactive).
Consider `CCOC(=O)Cc1nc2ccc3c(c2nc1O)C(=O)c1ccccc1C3=O`, for which the GI50 in the assay on ACHN is 20.6 µM (inactive); in the assay on CAKI-1 it was 14.6 µM (inactive); in the assay on COLO 205, > 100 µM (inactive); in the assay with HCC 2998, 46.7 µM (inactive); with HCT-15, 25.2 µM; with HT-29 it was > 100 µM (inactive). Further, the GI50 in the assay on IGROV-1 was 16.9 µM (inactive); in the assay with KM12, 14.7 µM (inactive); with MOLT-4 it was 5.45 µM (inactive); in the assay on NCI-H226, 80.7 µM (inactive); with NCI-H23, 40.2 µM (inactive); in the assay with OVCAR-3 it was 58.3 µM (inactive). The GI50 in the assay on SK-MEL-28 is > 100 µM (inactive); in the assay on SK-OV-3, 22.8 µM (inactive); in the assay on U-251, 48.4 µM (inactive); in the assay with UACC-257 it was 65.8 µM (inactive); in the assay with UACC-62, 34.5 µM (inactive).
Regarding `Cc1cnc[nH]c1=O`, the GI50 with ACHN was > 100 µM (inactive); in the assay with CAKI-1 it was > 100 µM (inactive); with COLO 205, > 100 µM (inactive); with HCC 2998 it was > 100 µM (inactive); with HCT-15, greater than 100 µM; with HT-29 it was > 100 µM (inactive). The GI50 with IGROV-1, with KM12, in the assay on MOLT-4, with NCI-H226, in the assay with NCI-H23 and in the assay with OVCAR-3 was > 100 µM (inactive) in each case. Also, the GI50 with SK-MEL-28, in the assay with SK-OV-3, with U-251, in the assay with UACC-257 and with UACC-62 was > 100 µM (inactive) in each case.
Consider `COc1cccc([C@@]2(O)c3c(ccc(O)c3OC)[C@H]2OC)c1OC`, for which the GI50 was 31.3 µM (inactive) in the assay on ACHN; 22.6 µM (inactive) with CAKI-1; 25.7 µM (inactive) in the assay on HCC 2998; 28.1 µM (inactive) with HT-29; 40.6 µM (inactive) with IGROV-1; 24.9 µM (inactive) in the assay on KM12. Also, the GI50 in the assay on MOLT-4 is 45.5 µM (inactive); in the assay with NCI-H226 it was 43.5 µM (inactive); in the assay on NCI-H23, 43.9 µM (inactive); with OVCAR-3 it was 23.9 µM (inactive); with SK-MEL-28, 38.1 µM (inactive); with SK-OV-3, 31.8 µM (inactive). The GI50 in the assay with U-251 is 51.4 µM (inactive); in the assay on UACC-257, 98.2 µM (inactive); with UACC-62, > 10 µM (inactive).
In the case of `Nc1c(C(=O)NC23CC4CC(CC(C4)C2)C3)[n+]([O-])c2ccccc2[n+]1[O-]`, the GI50 is > 100 µM (inactive) in the assay on ACHN; > 100 µM (inactive) in the assay on CAKI-1; > 100 µM (inactive) in the assay on COLO 205; > 100 µM (inactive) with HCC 2998; greater than 100 µM with HCT-15; > 100 µM (inactive) in the assay with HT-29. For the same molecule, the GI50 with IGROV-1, in the assay with KM12, in the assay with MOLT-4, with NCI-H226, in the assay on NCI-H23 and in the assay with OVCAR-3 was > 100 µM (inactive) each time. The GI50 in the assay with SK-MEL-28, in the assay on SK-OV-3, in the assay with U-251, in the assay with UACC-257 and in the assay on UACC-62 was > 100 µM (inactive) throughout.
`CSc1nc(NC2OCC(OC(C)=O)C(OC(C)=O)C2OC(C)=O)c(/N=C(\C)C(C)=O)c(=O)n1C` (stereo not drawn): the GI50 is > 100 µM (inactive) with ACHN; > 100 µM (inactive) in the assay with CAKI-1; > 100 µM (inactive) with COLO 205; > 100 µM (inactive) in the assay on HCC 2998; greater than 100 µM with HCT-15; > 100 µM (inactive) in the assay on HT-29. For the same molecule, the GI50 with IGROV-1, in the assay on KM12, in the assay with MOLT-4, with NCI-H226, in the assay with NCI-H23 and in the assay on OVCAR-3 was > 100 µM (inactive) each time. For the same molecule, the GI50 in the assay on SK-OV-3, in the assay with U-251, with UACC-257 and in the assay with UACC-62 was > 100 µM (inactive) in each case.
In the case of `CCCN1C(=O)CNC(=O)c2[nH]cnc21`, the GI50 with ACHN was > 100 µM (inactive); in the assay with CAKI-1 it was > 100 µM (inactive); in the assay on COLO 205, > 100 µM (inactive); in the assay on HCC 2998 it was > 100 µM (inactive); in the assay with HCT-15 it was greater than 100 µM; with HT-29, > 100 µM (inactive). The GI50 in the assay with IGROV-1, in the assay with KM12, in the assay with MOLT-4, in the assay with NCI-H226, with NCI-H23 and with OVCAR-3 was > 100 µM (inactive) throughout. For the same molecule, the GI50 is > 100 µM (inactive) in the assay with SK-MEL-28; > 100 µM (inactive) in the assay on SK-OV-3; > 100 µM (inactive) with U-251; > 100 µM (inactive) with UACC-257; 48.3 µM (inactive) in the assay on UACC-62.
As to `Cc1ccc(Oc2ccc([N+](=O)[O-])cc2[N+](=O)[O-])c(C)c1`, the GI50 in the assay on ACHN was 47.6 µM (inactive); in the assay with CAKI-1, 29.8 µM (inactive); with HCC 2998, > 100 µM (inactive); in the assay with HCT-15 it was 35.1 µM; in the assay on HT-29, 25.6 µM (inactive); in the assay with IGROV-1, > 100 µM (inactive). In addition, the GI50 in the assay with KM12 was > 10 µM (inactive); with MOLT-4, 21.5 µM (inactive); with NCI-H226 it was 44.9 µM (inactive); with NCI-H23, 28.7 µM (inactive); with OVCAR-3, 35.2 µM (inactive); in the assay on SK-MEL-28, 67.8 µM (inactive). Moreover, the GI50 with SK-OV-3 was > 100 µM (inactive); with U-251 it was 34.8 µM (inactive); with UACC-257 it was 26.1 µM (inactive); with UACC-62 it was 45 µM (inactive).
For `Cc1ccc(C)c(NC(=O)CC2SC(Nc3ccccc3Cl)=NC2=O)c1` (stereo not drawn), the GI50 was 71.1 µM (inactive) in the assay on ACHN; 65.8 µM (inactive) in the assay on CAKI-1; > 100 µM (inactive) with COLO 205; > 100 µM (inactive) in the assay on HCC 2998; greater than 100 µM with HCT-15; > 100 µM (inactive) in the assay with HT-29. In addition, the GI50 in the assay with IGROV-1 is > 100 µM (inactive); in the assay on KM12, > 100 µM (inactive); in the assay on MOLT-4, 81.5 µM (inactive); with NCI-H226, > 100 µM (inactive); in the assay with NCI-H23, 43 µM (inactive); in the assay on OVCAR-3, > 100 µM (inactive). Moreover, the GI50 was > 100 µM (inactive) in the assay on SK-MEL-28; > 100 µM (inactive) in the assay on SK-OV-3; > 100 µM (inactive) in the assay with U-251; 55.3 µM (inactive) with UACC-257; 49.3 µM (inactive) in the assay with UACC-62.
